These are literature values, as cited in patent US9757374B2, “Aripiprazole compositions and methods for its transdermal delivery” (Aequus Pharmaceuticals Inc., priority 2010, dated 2017).

Regarding `O=C1CCc2ccc(OCCCCN3CCN(c4cccc(Cl)c4Cl)CC3)cc2N1` [ARPZ, Aripiprazole], the solubility in water result was “practically insoluble”.
